≈ marks a conversion by molar mass, not a printed value. Where two headings read alike, the source gives them in different places.
Assay: solubility of beta-carotene in potential solvents
Assay type: physicochemical
Conditions: for solubility: organic solvent or mixture
From the text: The present invention is based, at least in part, on the discovery that one or more solvents such as tetrahydrofuran (THF), can be employed to form an improved cochleate with fragile nutrients such as beta-carotene at desirable concentrations. Suitable solvents and solvent mixtures that can be employed in connection with the present invention and can readily be identified by a person of skill in the art employing the teachings provided herein and knowledge in the art. For example, beta-carotene was added to a variety of potential solvents, and was found not soluble in either water or DMSO, and slightly soluble in methyl pyrrolidone (less than 1 mg/ml). Heptane also was considered, but heptane is not miscible with water and thus cannot readily be employed in the formation of cochleates. […] Similarly, solvents can be identified for other fragile nutrients and lipids in accordance with the present invention.

solubility (solvent methyl pyrrolidone, slightly soluble, read-out: solubility in methyl pyrrolidone): < 1000 µg/mL | solubility (solvent tetrahydrofuran (THF), read-out: solubility in THF): 10000 µg/mL (≈ 18.6 mM) | solubility in DMSO (solvent DMSO): not soluble | solubility in water (solvent water): not soluble
Structure (SMILES): CC1=C(/C=C/C(C)=C/C=C/C(C)=C/C=C/C=C(C)/C=C/C=C(C)/C=C/C2=C(C)CCCC2(C)C)C(C)(C)CCC1 [beta-carotene]

— US20050008686A1, “Cochleate preparations of fragile nutrients” (priority 2003, published 2005)
